According to paper PMC12959773 (Protein & Cell, 2025):
Numbering of substitutions follows the chain as printed.

Experiments:
[1] = target: T1, SLC7A11-SLC3A2 complex (Homo sapiens, UniProt Q9UPY5); test: microscale thermophoresis; settings: read-out: binding affinity
T1 construct: system xc-, heterodimeric light/heavy chain transporter; ectopically expressed in HEK293T cells; with Amino acid transporter heavy chain SLC3A2
T1 sequence (Q9UPY5 1-501): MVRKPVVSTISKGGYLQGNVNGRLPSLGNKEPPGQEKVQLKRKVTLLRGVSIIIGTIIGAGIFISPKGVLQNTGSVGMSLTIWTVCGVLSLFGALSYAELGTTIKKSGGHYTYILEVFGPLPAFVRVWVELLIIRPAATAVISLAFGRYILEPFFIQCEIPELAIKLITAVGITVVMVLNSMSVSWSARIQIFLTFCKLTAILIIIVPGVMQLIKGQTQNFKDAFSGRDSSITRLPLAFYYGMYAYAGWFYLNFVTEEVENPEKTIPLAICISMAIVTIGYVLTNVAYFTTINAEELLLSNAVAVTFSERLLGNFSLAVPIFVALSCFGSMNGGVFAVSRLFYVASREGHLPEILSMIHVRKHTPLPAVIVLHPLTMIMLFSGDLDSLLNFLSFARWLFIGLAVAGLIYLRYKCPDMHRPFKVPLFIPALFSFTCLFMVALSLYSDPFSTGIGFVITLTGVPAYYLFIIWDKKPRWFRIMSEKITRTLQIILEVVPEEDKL
T1 sequence (P08195 2-529 partner): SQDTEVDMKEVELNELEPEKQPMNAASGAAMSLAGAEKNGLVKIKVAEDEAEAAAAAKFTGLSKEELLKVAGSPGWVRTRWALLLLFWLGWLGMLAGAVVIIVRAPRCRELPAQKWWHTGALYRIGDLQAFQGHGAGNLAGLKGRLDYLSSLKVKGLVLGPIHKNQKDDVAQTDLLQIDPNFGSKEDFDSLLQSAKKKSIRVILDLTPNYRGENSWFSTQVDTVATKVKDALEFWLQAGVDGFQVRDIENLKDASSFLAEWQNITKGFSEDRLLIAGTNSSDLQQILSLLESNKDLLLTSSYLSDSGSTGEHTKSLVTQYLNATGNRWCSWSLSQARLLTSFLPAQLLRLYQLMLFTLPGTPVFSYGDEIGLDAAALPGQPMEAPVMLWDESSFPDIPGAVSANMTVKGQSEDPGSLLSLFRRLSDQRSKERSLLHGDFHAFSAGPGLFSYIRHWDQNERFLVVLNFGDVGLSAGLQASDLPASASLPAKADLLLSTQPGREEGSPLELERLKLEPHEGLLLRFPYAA

[2] = target: T2, SLC7A13-SLC3A1 complex (Homo sapiens, UniProt Q8TCU3, S306A); test: [2H]-cystine uptake, isotope tracking; type: cell-based; settings: HEK293 cells transfected with SLC7A13 and SLC3A1; labelled compound
T2 construct: heterodimeric light/heavy chain transporter, dimer of heterodimers; ectopically expressed in HEK293T / HEK293 cells (Expi293 for cryo-EM); with Amino acid transporter heavy chain SLC3A1
T2 sequence (Q8TCU3 1-470 S306A): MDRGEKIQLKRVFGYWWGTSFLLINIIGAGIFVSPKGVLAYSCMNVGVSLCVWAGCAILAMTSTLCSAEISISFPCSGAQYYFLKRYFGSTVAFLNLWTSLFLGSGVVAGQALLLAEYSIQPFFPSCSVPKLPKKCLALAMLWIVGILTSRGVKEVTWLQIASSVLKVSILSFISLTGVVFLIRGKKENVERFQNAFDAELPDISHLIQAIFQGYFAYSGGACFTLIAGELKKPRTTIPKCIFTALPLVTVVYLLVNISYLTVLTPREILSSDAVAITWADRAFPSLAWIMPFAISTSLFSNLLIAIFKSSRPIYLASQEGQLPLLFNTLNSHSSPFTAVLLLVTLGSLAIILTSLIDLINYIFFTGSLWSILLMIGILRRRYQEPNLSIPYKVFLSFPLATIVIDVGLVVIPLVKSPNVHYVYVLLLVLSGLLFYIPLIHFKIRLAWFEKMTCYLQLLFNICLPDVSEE
T2 sequence (Q07837 1-685 partner): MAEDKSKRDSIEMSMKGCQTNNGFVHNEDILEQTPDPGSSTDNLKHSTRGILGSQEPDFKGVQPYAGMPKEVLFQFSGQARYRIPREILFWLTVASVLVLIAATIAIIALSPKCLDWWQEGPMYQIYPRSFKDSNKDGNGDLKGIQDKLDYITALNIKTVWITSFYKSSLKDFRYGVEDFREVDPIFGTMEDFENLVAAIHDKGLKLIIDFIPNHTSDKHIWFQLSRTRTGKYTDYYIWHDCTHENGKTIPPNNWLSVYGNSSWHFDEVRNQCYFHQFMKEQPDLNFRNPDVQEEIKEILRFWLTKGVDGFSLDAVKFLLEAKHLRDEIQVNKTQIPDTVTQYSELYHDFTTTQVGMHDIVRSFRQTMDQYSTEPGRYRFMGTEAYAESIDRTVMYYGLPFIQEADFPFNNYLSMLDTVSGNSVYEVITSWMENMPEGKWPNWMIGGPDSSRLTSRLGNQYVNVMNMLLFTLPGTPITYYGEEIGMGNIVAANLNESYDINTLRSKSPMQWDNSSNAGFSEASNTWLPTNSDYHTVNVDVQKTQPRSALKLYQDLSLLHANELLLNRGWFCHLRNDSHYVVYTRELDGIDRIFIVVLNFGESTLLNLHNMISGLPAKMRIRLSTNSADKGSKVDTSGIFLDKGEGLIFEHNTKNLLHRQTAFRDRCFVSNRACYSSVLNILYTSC

[3] = target: T3, SLC7A13-SLC3A1 complex (Homo sapiens, UniProt Q8TCU3, K309A); test: [2H]-cystine uptake, isotope tracking; type: cell-based; settings: HEK293 cells transfected with SLC7A13 and SLC3A1; labelled compound
T3 construct: heterodimeric light/heavy chain transporter, dimer of heterodimers; ectopically expressed in HEK293T / HEK293 cells (Expi293 for cryo-EM); with Amino acid transporter heavy chain SLC3A1
T3 sequence (Q8TCU3 1-470 K309A): T2 sequence (Q8TCU3 1-470 S306A) with A306S, K309A
T3 sequence (Q07837 1-685 partner): T2 sequence (Q07837 1-685 partner)

- Kd [1]: 15.6 ± 7.04 µM
Structure (SMILES): N[C@@H](CSSC[C@H](N)C(=O)O)C(=O)O [cystine]
- cystine uptake [2]: mutation in any of the seven SLC7A13-specific residues to alanine significantly reduced SLC7A13’s transporter activities
- cystine uptake [3]: mutation in any of the seven SLC7A13-specific residues to alanine significantly reduced SLC7A13’s transporter activities
